Key:
Metabolite ID in plasma = format: in vitro ADME; details: HBI-2375 and metabolites in Rat plasma
HDAC2 = HDAC2 (Homo sapiens, UniProt Q92769); assay: Selectivity panel (Table 3); format: biochemical
[1] = Metabolite ID in Liver S9; format: in vitro ADME; details: HBI-2375 and metabolites in Dog liver S9
HDAC6 = HDAC6 (Homo sapiens, UniProt Q9UBN7); assay: Selectivity panel (Table 3); format: biochemical
BRD4-BD2 = molecular target: T1, BRD4-BD2 (Homo sapiens, UniProt O60885); assay: Selectivity panel (Table 3); format: binding
T1 construct: BRD4-BD2

PTP1B = PTP1B (Homo sapiens, UniProt P18031); assay: Selectivity panel (Table 3); format: biochemical
Chain of PTP1B (P18031 whole entry, species assumed): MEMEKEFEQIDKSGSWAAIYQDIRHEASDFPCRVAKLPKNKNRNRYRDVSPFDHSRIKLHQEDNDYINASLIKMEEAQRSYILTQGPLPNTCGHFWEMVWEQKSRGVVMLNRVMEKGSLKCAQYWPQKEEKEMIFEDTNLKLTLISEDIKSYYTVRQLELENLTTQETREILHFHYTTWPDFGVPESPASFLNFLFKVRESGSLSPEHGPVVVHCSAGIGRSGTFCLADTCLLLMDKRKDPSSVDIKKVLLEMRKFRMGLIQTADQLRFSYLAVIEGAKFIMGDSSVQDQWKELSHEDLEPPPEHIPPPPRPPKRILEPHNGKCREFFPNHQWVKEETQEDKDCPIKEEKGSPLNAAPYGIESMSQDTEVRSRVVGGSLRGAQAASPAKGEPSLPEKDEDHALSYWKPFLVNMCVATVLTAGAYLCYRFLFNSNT

[2] = Predicted brain concentrations based on mouse/rat PK/BBB data; details: Equivalent Human 6.5 mg/kg
Experimental: The ability of a compound of Formula (IIIb) (HBI_084 (HBI-2375)) to cross the BBB is determined in a population comprising one or more human subjects by orally (PO) or intravenously (IV) administering a pharmaceutical composition comprising a compound of Formula (IIIb) to the individual members of the population of human subjects at one or more doses described in Example 5. Blood samples and CSF are drawn from the subjects and compound concentrations are determined in the blood plasma and CSF of the subjects as described in Example 4. Pharmacokinetic parameters are determined by means analogous to those described in Examples 1-4. Doses for HBI-2375 may be based on a target concentration in subjects' brain predicted using the following table.

TEAD4 = TEAD4 (Homo sapiens, UniProt Q15561); assay: Selectivity panel (Table 3); format: binding
Chain of TEAD4 (Q15561 whole entry, species assumed): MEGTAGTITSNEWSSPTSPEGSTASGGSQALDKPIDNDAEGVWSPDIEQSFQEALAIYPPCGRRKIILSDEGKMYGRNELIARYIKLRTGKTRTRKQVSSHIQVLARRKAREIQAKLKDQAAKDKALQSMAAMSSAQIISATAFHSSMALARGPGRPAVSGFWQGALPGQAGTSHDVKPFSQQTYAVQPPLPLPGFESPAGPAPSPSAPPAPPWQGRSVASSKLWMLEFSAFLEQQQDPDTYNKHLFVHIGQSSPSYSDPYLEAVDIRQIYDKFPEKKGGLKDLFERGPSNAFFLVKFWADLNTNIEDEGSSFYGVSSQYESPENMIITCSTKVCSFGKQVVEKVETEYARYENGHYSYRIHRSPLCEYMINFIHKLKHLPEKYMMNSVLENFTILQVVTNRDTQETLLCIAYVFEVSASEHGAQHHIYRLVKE

TEAD2 = TEAD2 (Homo sapiens, UniProt Q15562); assay: Selectivity panel (Table 3); format: binding
Chain of TEAD2 (Q15562 whole entry, species assumed): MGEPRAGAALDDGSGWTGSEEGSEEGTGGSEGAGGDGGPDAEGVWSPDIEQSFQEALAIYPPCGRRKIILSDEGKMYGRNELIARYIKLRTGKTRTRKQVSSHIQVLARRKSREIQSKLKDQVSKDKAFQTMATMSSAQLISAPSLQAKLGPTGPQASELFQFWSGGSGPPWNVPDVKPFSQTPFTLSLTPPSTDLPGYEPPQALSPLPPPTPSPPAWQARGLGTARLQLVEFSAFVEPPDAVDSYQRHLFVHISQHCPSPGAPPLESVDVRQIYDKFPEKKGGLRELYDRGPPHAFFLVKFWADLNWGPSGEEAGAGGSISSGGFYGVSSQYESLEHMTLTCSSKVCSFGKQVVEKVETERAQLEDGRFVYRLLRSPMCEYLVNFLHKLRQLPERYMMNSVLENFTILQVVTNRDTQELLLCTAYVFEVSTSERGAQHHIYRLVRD

SHP2 WT = SHP2 WT (Homo sapiens, UniProt Q06124); assay: Selectivity panel (Table 3); format: biochemical
Chain of SHP2 WT (Q06124 whole entry): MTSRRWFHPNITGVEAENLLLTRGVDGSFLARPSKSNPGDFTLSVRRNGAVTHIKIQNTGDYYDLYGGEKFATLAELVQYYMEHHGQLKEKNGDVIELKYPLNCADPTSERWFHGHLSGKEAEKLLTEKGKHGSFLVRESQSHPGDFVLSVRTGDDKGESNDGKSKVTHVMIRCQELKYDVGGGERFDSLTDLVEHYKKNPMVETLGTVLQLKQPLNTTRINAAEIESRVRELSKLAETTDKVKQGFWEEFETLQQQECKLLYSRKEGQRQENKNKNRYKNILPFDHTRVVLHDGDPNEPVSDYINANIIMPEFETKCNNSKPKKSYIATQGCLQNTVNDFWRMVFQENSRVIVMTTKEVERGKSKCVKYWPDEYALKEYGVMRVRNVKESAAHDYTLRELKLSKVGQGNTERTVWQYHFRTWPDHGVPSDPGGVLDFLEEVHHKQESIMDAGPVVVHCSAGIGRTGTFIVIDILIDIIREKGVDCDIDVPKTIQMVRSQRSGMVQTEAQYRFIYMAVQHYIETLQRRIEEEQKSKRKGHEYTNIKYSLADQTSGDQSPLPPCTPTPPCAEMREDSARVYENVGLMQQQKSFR

hERG = hERG (Homo sapiens, UniProt Q12809); assay: hERG IC50; format: cell-based
Chain of hERG (Q12809 whole entry): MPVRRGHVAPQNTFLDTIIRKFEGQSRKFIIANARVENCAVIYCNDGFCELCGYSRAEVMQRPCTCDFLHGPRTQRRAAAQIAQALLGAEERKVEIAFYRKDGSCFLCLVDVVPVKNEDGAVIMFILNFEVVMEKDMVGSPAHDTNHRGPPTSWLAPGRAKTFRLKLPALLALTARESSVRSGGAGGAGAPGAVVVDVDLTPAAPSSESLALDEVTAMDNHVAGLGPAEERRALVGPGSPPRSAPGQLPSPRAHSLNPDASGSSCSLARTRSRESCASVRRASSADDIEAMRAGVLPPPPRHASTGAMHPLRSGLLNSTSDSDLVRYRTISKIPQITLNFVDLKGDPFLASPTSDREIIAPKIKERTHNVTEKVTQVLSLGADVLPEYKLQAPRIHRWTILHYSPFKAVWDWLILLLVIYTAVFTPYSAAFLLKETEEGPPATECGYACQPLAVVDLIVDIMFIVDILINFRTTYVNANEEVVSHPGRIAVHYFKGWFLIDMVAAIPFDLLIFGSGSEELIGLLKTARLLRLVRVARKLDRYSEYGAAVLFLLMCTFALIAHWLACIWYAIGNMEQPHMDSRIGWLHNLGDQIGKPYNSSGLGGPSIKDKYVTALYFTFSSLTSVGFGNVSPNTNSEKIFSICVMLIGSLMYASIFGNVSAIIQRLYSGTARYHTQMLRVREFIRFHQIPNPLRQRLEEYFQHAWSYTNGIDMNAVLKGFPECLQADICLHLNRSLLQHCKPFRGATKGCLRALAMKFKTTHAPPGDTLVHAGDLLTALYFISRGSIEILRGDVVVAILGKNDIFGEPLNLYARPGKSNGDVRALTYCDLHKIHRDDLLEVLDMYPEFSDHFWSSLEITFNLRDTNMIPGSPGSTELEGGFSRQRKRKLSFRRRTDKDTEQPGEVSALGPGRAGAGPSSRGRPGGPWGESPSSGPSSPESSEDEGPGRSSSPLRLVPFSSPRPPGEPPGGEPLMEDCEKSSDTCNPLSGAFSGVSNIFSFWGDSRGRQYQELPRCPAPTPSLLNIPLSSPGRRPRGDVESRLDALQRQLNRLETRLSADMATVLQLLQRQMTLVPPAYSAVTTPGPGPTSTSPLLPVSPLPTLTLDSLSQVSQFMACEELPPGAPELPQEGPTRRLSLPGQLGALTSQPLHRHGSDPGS

GLS1 = GLS1 (Homo sapiens, UniProt O94925); assay: Selectivity panel (Table 3); format: biochemical
[3] = WBS (whole blood stability) assay; format: in vitro ADME; details: for % Remaining after 60 min incubation: 2 μM, 37° C.
Experimental: WBS (whole blood stability) assay: The blood samples were collected freshly from multiple species including human, monkey, dog, rat and mouse. 2 μM of test compound and positive control were incubated with the whole blood at 37° C. at 0, 10, 30, 60, and 120 minutes in duplicate. After adding the stop solution, 200 μL of supernatant were analyzed by LC-MS/MS. The % remaining of test compound and T1/2 (min) were calculated and reported.

Liver S9 stability assay [4] = format: in vitro ADME, rat
Experimental: (§1) Liver S9 stability assay: Test compounds (1 μM) and positive control were incubated with 5 mM GSH and liver S9 (1 mg protein/ml) from multiple species (including human, monkey, dog, rat and mouse) at 37° C. at 0, 10, 30, and 60 minutes in duplicate. After adding the stop solution, 100 μL of supernatant were analyzed by LC-MS/MS. The % remaining of test compound, T1/2 (min), and CLint (μL/min/mg) were calculated and were reported.

Liver S9 stability assay [5] = format: in vitro ADME, dog
Experimental: as §1

WDR5 = WDR5 (Homo sapiens, UniProt P61964); assay: WDR5 TR-FRET Assay; format: binding; details: 5 nM WDR5 protein, 10 nM peptide, read-out: IC50 (MLL1-WDR5 PPI inhibitory activity)
Experimental: WDR5 TR-FRET Assay Procedure: Stock compounds were transferred to the assay plate by Echo Liquid Handler. Reactions were performed in the assay buffer (1×PBS, 300 mM NaCl, 0.5 mM TCEP, 0.1% CHAPS) containing 5 nM WDR5 protein, 10 nM peptide (Ac-ARTEVHLRKS-[Ahx-Ahx][C]-Alexa Fluor 488-NH2) and 0.25 nM Tb-anti His antibody (Tb-Ab) in 384-well white plate (PerkinElmer) with a final volume of 20 μl. Compounds were incubated with WDR5 protein for 30 min at room temperature. Plates were covered, protected from light and incubated for 60 min. at room temperature after adding the peptide and Tb-Ab. EnVision Multimode Plate Reader (PerkinElmer) was used for the TR-FRET assay with excitation wavelength at 340 nm and emission wavelength at 495 and 520 nm. The ratio of the 520/495 nm wavelengths were used to assess the degree of the FRET signal. IC50 was calculated by fitting the inhibition data using XLfit software to sigmoidal dose-response model.

Liver S9 stability assay [6] = format: in vitro ADME, human
Experimental: as §1

[7] = Metabolite ID in Liver S9; format: in vitro ADME; details: HBI-2375 and metabolites in Mouse liver S9

Chain of HDAC2 (Q92769 whole entry, species assumed): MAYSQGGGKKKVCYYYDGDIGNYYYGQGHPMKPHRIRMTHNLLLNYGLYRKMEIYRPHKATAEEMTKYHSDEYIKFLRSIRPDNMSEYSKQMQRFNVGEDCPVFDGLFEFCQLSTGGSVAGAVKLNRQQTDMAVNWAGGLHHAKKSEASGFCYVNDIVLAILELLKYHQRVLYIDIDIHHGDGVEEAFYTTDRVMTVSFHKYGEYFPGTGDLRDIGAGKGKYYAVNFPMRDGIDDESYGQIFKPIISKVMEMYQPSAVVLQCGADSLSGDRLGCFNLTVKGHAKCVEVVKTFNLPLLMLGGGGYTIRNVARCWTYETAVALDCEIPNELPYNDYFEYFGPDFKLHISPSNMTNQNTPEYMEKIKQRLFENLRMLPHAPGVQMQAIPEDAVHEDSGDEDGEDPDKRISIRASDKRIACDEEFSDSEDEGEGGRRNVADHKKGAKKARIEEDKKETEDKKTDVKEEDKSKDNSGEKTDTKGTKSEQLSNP
Chain of HDAC6 (Q9UBN7 whole entry, species assumed): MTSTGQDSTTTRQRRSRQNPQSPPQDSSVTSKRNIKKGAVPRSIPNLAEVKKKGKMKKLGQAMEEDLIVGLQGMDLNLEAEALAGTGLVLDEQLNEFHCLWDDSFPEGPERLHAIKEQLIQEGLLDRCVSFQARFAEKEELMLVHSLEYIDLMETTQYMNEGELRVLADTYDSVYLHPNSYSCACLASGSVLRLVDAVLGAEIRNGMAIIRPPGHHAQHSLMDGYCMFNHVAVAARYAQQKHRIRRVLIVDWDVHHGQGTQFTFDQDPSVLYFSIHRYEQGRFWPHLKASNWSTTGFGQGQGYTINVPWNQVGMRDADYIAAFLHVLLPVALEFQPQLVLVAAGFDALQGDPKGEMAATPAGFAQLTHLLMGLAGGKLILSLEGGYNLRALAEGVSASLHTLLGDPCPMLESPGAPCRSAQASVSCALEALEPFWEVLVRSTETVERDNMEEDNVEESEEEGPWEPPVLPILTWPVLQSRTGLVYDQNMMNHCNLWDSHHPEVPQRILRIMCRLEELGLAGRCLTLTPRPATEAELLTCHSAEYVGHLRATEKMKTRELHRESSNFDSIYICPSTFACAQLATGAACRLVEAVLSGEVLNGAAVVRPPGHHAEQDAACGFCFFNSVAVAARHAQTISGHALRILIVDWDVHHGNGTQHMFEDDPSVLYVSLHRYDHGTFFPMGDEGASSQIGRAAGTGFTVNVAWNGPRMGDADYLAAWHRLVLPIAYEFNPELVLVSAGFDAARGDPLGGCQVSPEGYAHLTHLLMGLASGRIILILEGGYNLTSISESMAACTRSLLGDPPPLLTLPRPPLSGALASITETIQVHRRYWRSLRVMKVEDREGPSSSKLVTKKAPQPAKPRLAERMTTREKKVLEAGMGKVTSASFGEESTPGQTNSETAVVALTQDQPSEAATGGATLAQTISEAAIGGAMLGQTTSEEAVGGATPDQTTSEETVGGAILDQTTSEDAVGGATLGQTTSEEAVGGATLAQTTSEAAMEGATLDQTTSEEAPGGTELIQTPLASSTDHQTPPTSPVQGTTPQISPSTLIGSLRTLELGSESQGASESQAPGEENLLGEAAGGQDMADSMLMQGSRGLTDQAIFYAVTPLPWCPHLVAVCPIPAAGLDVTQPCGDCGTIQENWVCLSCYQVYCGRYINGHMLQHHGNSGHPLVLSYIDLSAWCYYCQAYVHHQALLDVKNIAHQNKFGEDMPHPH

Structure (SMILES): Cc1c(F)c(N)cc(C(=O)Nc2cc(-n3cc(C(=O)N4CCN(C)CC4)nn3)c(F)cc2N2C[C@@H](C)N(C)[C@@H](C)C2)c1Cl [HYBI-084, 5-amino-2-chloro-4-fluoro-N-(4-fluoro-5-(4-(4-methylpiperazine-1-carbonyl)-1H-1,2,3-triazol-1-yl)-2-((3S,5R)-3,4,5-trimethylpiperazin-1-yl)phenyl)-3-methylbenzamide]
- Relative Abundance (UV Peak Area % Total) (Metabolite ID in plasma): 93.47%
- IC50 (HDAC2): > 1000 nM
- Relative Abundance (UV Peak Area % Total) [1]: 70.71%
- IC50 (HDAC6): > 1000 nM
- IC50 (BRD4-BD2): > 1000 nM
- IC50 (PTP1B): > 1000 nM
- Predicted Mean Brain Concentration, Cmin = 24 h ([2]; estimated from repeated PO mouse): 11.1 ng/g
- Predicted Mean Brain Concentration, Cmin = 24 h ([2]; estimated from single PO mouse): 4.5 ng/g
- Predicted Mean Brain Concentration, Cmin = 24 h ([2]; estimated from single PO rat): 3.6 ng/g
- IC50 (TEAD4): > 1000 nM
- IC50 (TEAD2): > 1000 nM
- IC50 (SHP2 WT): > 1000 nM
- IC50 (hERG): 22200 nM
- IC50 (GLS1): > 1000 nM
- half-life at 2 μM ([3]; Dog whole blood): > 2.41 h
- % Remaining after 60 min incubation ([3]; Dog whole blood): 94.6%
- half-life at 2 μM ([3]; Human whole blood): 10.3 h
- % Remaining after 60 min incubation ([3]; Human whole blood): 110%
- half-life at 2 μM ([3]; Mouse whole blood): > 2.41 h
- % Remaining after 60 min incubation ([3]; Mouse whole blood): 108%
- half-life at 2 μM ([3]; Rat whole blood): > 2.41 h
- % Remaining after 60 min incubation ([3]; Rat whole blood): 109%
- half-life at 1 μM (Liver S9 stability assay [4]; Rat liver S9): > 2.42 h
- microsomal CLint at 1 μM (Liver S9 stability assay [4]; Rat liver S9): < 4.8 µL/min/mg
- % Remaining after 60 min incubation (Liver S9 stability assay [4]; Rat liver S9, 1 μM, 5 mM GSH, 37° C.): 80.1%
- half-life at 1 μM (Liver S9 stability assay [5]; Dog liver S9): > 2.42 h
- microsomal CLint at 1 μM (Liver S9 stability assay [5]; Dog liver S9): < 4.8 µL/min/mg
- % Remaining after 60 min incubation (Liver S9 stability assay [5]; Dog liver S9, 1 μM, 5 mM GSH, 37° C.): 92.5%
- IC50 (WDR5): 4.48 nM
- half-life at 1 μM (Liver S9 stability assay [6]; Human liver S9): > 2.42 h
- microsomal CLint at 1 μM (Liver S9 stability assay [6]; Human liver S9): < 4.8 µL/min/mg
- % Remaining after 60 min incubation (Liver S9 stability assay [6]; Human liver S9, 1 μM, 5 mM GSH, 37° C.): 85.1%
- Relative Abundance (UV Peak Area % Total) [7]: 63.02%

From US20230293539A1, “MLL1-WDR5 PROTEIN-PROTEIN INTERACTION INHIBITOR COMPOUNDS AND USES THEREOF” (HUYABIO International, LLC, priority 2022, published 2023)
